Where two headings read alike, the source gives them in different places.
Columns and labels:
[1] = tested on: IL-1-induced COX-2 expression; assay: IL-1-induced COX-2 expression in S112 human dermal fibroblasts (MIF-dependent event), flow cytometry; assay type: cell-based; details: Homo sapiens, Fibroblast, IL-1 0.1 ng/ml, 6 hours, S112 cells, read-out: % inhibition of IL-1-induced COX2 expression (Effect); for inhibition at 1 µM: compound 1 uM
Method: The activity of each compound was studied in a bioassay utilising MIF-dependent activation of human dermal fibroblasts. […] IL-1-induced COX-2 expression is therefore a MIF-dependent event. […] Prior to experimentation, cells were seeded at 10^5 cells/ml in RPMI/0.1% BSA for 18 hours. […] Cells permeabilised with 0.1% saponin were sequentially labelled with a mouse anti-human COX-2 monoclonal antibody and with sheep-anti-mouse F(ab)2 fragment labelled with fluoroscein isothiocyanate. Cellular fluorescence was determined using a flow cytometer. At least 5000 events were counted for each reading, each of which was performed in duplicate, and the results expressed in mean fluorescence intensity (MFI) after subtraction of negative control-labelled cell fluorescence. The effect of each compound was determined by subtracting the IL-1+compound-treated cell MFI from the IL-1-treated cell MFI and expressed as % inhibition. In each case the % inhibition of IL-1-induced COX2 expression is shown as the mean, or mean±SEM where results are available from multiple experiments.

[2] = tested on: murine endotoxic shock model (LPS); assay: murine endotoxic shock model, serum cytokines by ELISA; assay type: in vivo; details: mice
Method: The activity of 6,7-dihydroxynaphthalene-3-sulfonic acid (compound 6) was studied in the murine endotoxic shock model. This model has been previously shown to be dependent on MIF (35). […] Endotoxaemia was induced by intra-peritoneal injection of lipopolysaccharide (LPS) (15 mg/kg) in 400 μl saline. Mice were treated with a saline solution (control) only, a saline solution and LPS, or LPS and 6,7-dihydroxynaphthalene-2-sulfonic acid (compound 6) at a dose of 15 mg/kg body weight by intra-peritoneal injection at 24 hours, 12 hours and 1 hour before intra-peritoneal LPS injection. After 1.5 or 6 hours mice were humanely killed by CO2 inhalation then neck dislocation. Serum was obtained from blood obtained by cardiac puncture prior to death and measured for cytokines including interleukin 1 (IL-1) and interleukin 6 (IL-6) by ELISA. The production of IL-1 and IL-6 has been previously shown to be dependent on MIF (36).
The effect of compounds was further tested under a variety of conditions in animals exposed to endotoxic shock induced as above by the injection of 15 mg/kg LPS by intraperitoneal injection. In each case, compounds were administered by intraperitoneal injection at a dose of 15 mg/kg. Compound administration was associated with reductions in serum cytokine concentration under a variety of administration regimens.

[3] = tested on: antigen-specific T cell activation (splenic T lymphocytes from mBSA-immunised mice); assay: antigen-specific (mBSA) activation of splenic T lymphocytes in vitro, 3H-thymidine incorporation; assay type: cell-based, C57BL6/J mice; details: for EC50: Mus musculus, T-cell, read-out: EC50 (T cell activation suppressed by 50% compared to vehicle-only-treated cells)
Method: After a further seven (7) days mice were killed and spleens collected aseptically into Hanks buffered saline solution (HBSS). A single cell suspension was prepared in Petri dishes by flushing DMEM through the organ using a 26G needle and 2 mL syringe. The resulting cell suspension was centrifuged for 5-7 minutes and supernatant discarded. Erythrocytes were lysed using a solution containing 0.579% NH4Cl, 0.000037% EDTA, and 0.1% NaHCO3 in a 37° C. water bath. Tubes were then filled with DMEM and centrifuged for 5-7 minutes. […] The specific stimulating antigen, mBSA, was then added at 10-50 μg/mL and plates incubated for 30 hours in a 37° C., 5% CO2 incubator. Tritiated^3H-thymidine was then added at a concentration of 0.5 μCi/well for a further 18 hours. Cells were harvested on a Packard cell harvester, and the harvested material added to 750 μL/tube scintillation fluid. Scintillation counts were read on a Wallac beta-emnission counter. […] Further compounds were also tested for their ability to inhibit antigen-specific T cell activation as a marker of the inhibition of the cytokine or biological activity of MIF using this assay.

[4] = tested on: murine antigen-induced arthritis; assay: murine antigen-induced arthritis, histological score; assay type: in vivo, C57BL6/J mice; details: 15 mg/kg i.p. once per 24 hours; histology at day 28; mice
Method: Antigen-induced arthritis was induced in mice. C57BL6/J male mice, aged 7-10 weeks old, were immunized on day 0 with 200 μg methylated BSA (mBSA) emulsified in 200 μl of Freund's complete adjuvant (FCA) injected subcutaneously into the flank skin. Mice were treated with compound 5, administered by intraperitoneal injection, once per 24 hours at a dose of 15 mg/kg body weight. After seven days, mice received 100 μg “mBSA and 100 μl FCA by intradermal injection at the base of the tail. After a further 14 days, arthritis was induced by intra-articular injection of 30 μg mBSA in 10 μl of sterile saline into the left knee, the right knee being injected with sterile saline alone.
Arthritis was analysed histologically at day 28 after first immunisation. Knee joints were dissected and fixed in 10% buffered formalin for 7 days. Fixed tissues were decalcified for 3 weeks in 15% ethylene-diamine-tetra-acetic acid (EDTA), dehydrated and embedded in paraffin. Sagittal sections (5 μm) of the knee joint were stained with Safranin-O and counterstained with fast green /iron hematoxylin. Histological sections were scored from 0 to 3 for four parameters: Synovitis was defined as hyper-cellularity of the synovium including pannus formation. Joint space exudate was identified as leukocytes, discretely or in aggregates, in the joint space. […]

[5] = tested on: recombinant human macrophage migration inhibitory factor (MIF)-induced proliferation of S112 human dermal fibroblasts; assay: MIF-induced proliferation of S112 human dermal fibroblasts, 3H-thymidine incorporation; assay type: cell-based; details: for inhibition at 0.013 µM: Homo sapiens, Fibroblast, concentration 0.013 μM, rhMIF 50 ng/ml, S112 cells, read-out: % inhibition of proliferation compared to vehicle plus rhMIF-treated cells
Method: The activity of each compound was studied in a bioassay utilising MIF-induced proliferation of human dermal fibroblasts. S112 human dermal fibroblasts were propagated in RPMI/10% foetal calf serum (FCS). Prior to experimentation, cells were seeded at 10^5 cells/ml in RPMI/0.1% BSA for 18 hours. At time point zero, culture medium was replaced with RPMI/10% FCS and treatments administered. Cells were treated with recombinant human macrophage migration inhibitory factor (MIF) 50 ng/ml (1.353×10^−9 M) and/or the compound at a 1 or 1000 molar ratio to the concentration of MIF. In some experiments the compound was combined with MIF at time point −30 minutes, prior to adding at time point zero. At time point 30 hours, cells were pulsed with […]. At time point 48 hours, cells were harvested using a semi-automated cell harvester. The radioactivity incorporated into DNA was determined by liquid scintillation counting, with results expressed as [^3H] thymidine incorporation. The proliferation of untreated cells was expressed as 100% and the effect of MIF and each compound expressed in relative %.
The activity of compound 5 was studied in a bioassay utilising MIF-induced proliferation of human dermal fibroblasts. S112 human dermal fibroblasts were propagated in RPMI/10% foetal calf serum (FCS). Prior to experimentation, cells were seeded at 10^5 cells/ml in RPMII/0.1% BSA for 18 hours. At time point zero, culture medium was replaced with RPMI/10% FCS and treatments administered. Cells were treated with recombinant human macrophage migration inhibitory factor (MIF) 50 ng/ml and/or compound 5 at a 1-1000 molar ratio to the concentration of MIF. At a time point 30 hours later, cells were pulsed with 1 μCi/well of ^3H-thymidine. At a time point 48 hours after commencement of the experiment, cells were harvested using a semi-automated cell harvester. The radioactivity incorporated into DNA was determined by liquid scintillation counting, with results expressed as [^3H] thymidine incorporation.

[6] = tested on: ex vivo splenic T cell proliferation; assay: ex vivo antigen-specific splenic T cell proliferation after in vivo treatment; details: [mBSA] 10 ug/mL; cells from compound-treated versus vehicle-treated mice
Text: In vivo administration of such a compound might be expected to exert effects on T cell responsiveness even after the T cells have been removed from exposure to the compound, that is, if T cells were studied ex vivo after in vivo treatment with the MIF antagonist compound. To measure ex vivo antigen-specific T cell activation, spleens were removed from mice with murine antigen induced arthritis, induced as above with mBSA, at day 28 after first immunisation and a single cell suspension prepared in DMEM containing 5% FCS and 0.05% 2-mercaptoethanol. 1×10^5 cells /200 μl were cultured in triplicate in the presence or absence of mBSA (0.1, 1.0, 10 μg /ml) in 96-well plates for 48 hours (37° C., 5% CO2) The T cell proliferation response was determined by measuring ^3H-thymidine incorporation during the final 18 hr. The cells were harvested and radioactivity incorporation into the DNA was measured with a Wallac 1409 liquid scintillation counter. The means of each triplicate culture were calculated. Each experiment comprised at least three individual animals and the results presented represent the mean±SEM of groups of animals in each experiment. The percentage inhibition of T cell proliferation was calculated using the result of the ^3H-thymidine incorporation of cells from compound-treated animals divided by the ^3H-thymidine incorporation of cells from vehicle-treated animals.

[7] = tested on: rat adjuvant-induced arthritis (AIA) model; assay: rat adjuvant-induced arthritis (AIA) model; assay type: in vivo, Sprague-Dawley rats; details: 1.0 mg/kg once daily intraperitoneal
Method: The activity of each compound was studied in the rat adjuvant-induced arthritis (AIA) model of rheumatoid arthritis. […] Male Sprague-Dawley rats (150±20 g) were used. Adjuvant artritis was induced by intradermal injection at the tail base of […] of a 10 mg/ml suspension of heat-inactivated Mycobacterium tuberculosis (Difco, Detroit, Mich.) in squalane. The compound was administered at a dose of 1.0 mg/kg body weight by once daily intraperitoneal injection on each day (treated). Control animals received an identical volume injection of vehicle (control). Joint inflammation in adjuvant arthritis was assessed clinically as follows: • i) Articular index/score: A score of 0 (no observable erythema or swelling) to 4 (severe swelling and erythema) was given for each paw. All four paws were scored, resulting in a maximum possible score of 16 for each animal (34). • ii) Synovial fluid cell number: Joints were exposed by removal of overlying skin, needle arthrocentesis performed and joint space cells obtained by closed needle lavage with 2 ml saline using a 26 gauge needle and syringe. Lavaged cells from both ankle joints were pooled, washed in saline (300 g for 5 minutes), and counted in a hemocytometer (Improved Nebauer, Weber, UK) (34).

[8] = tested on: murine peritoneal macrophage nitric oxide production; assay: murine peritoneal macrophage nitric oxide production (nitrite, Greiss assay); assay type: cell-based, C57BL6/J mice; details: Mus musculus, LPS 10 ng/ml and interferon-γ 10 units/ml, 24 hours, read-out: % Nitrite concentration inhibition from control
Method: C57BL6/J male mice were injected intraperitoneally with 2ml of thioglycollate. Five (5) days later peritoneal macrophages were collected by ravaging the peritoneum of anaesthetized mice with 3 ml of cold Hanks buffered saline solution. Cells from several mice were pooled, washed and re-suspended in DMEM supplemented with 5% FCS. Cells were plated in 96 well plastic tissue culture plates at 1×10^5 cells/well. Cells were treated with compound or vehicle for 1 hour in a 5% CO2 incubator at 37° C. Cells were then treated with LPS (10 ng/ml) and recombinant human interferon-γ (10 units/ml) and incubated for 24 hours. After 24 hours, 50 μl of supernatant from each well was carefully removed and transferred to ELISA plates. The concentration of nitrite in culture supernatants was measured by the Greiss assay (41). The results were defined as the percentage inhibition of nitrite concentration in compound-treated cell culture supernatants compared to that of vehicle-treated cells.

For `O=C(O)c1ccc2c([N+](=O)[O-])c(O)ccc2c1` [Compound 23, 6-hydroxy-5-nitro-2-napthoic acid], the inhibition at 10 µM ([1]; compound 10 uM) was 8%, the “serum IL-1, LPS plus compound” value ([2]; compound 15 mg/kg i.p. at −16 h before LPS 15 mg/kg i.p.) was 58 ± 13 ng/mL and the EC50 ([3]; mBSA 10 μg/ml) was over 100 µM. The EC50 ([3]; mBSA 50 μg/ml) was over 100 µM, the “effect on antigen-specific T cell activation (FIG. 10)” value ([3]; increasing concentrations, mBSA 50 μg/mL) was “dose-dependent and statistically significant inhibitory effect” and the “individual parameters of arthritis (synovitis, joint space exudate, cartilage degradation, bone damage; FIG. 11b)” value [4] was “Clinically significant reductions in the severity of all individual parameters of arthritis”. The “total arthritis score (FIG. 11a)” value [4] was “clinically significant reduction in total arthritis score”.
For `COc1cc2ccc(C(=O)O)cc2cc1OC` [Compound 4, 6,7-dimethoxy-2-naphthanoic acid], the inhibition at 1 µM [1] was 2.7%, the “effect on MIF-induced proliferation of human dermal fibroblasts (FIGS. 1 and 2)” value ([5]; 1M ratio equivalent to MIF 50 ng/ml) was “inhibition of MIF-induced proliferation” and the inhibition at 0.013 µM [5] was 24%. For the same molecule, the EC50 ([3]; mBSA 10 μg/ml) was 14.8 µM, the EC50 ([3]; mBSA 50 μg/ml) was 49.5 µM and the “% inhibition of ex vivo splenic T cell proliferation” value [6] was 18%. The melting point was 248 to 250 °C.
With `O=S(=O)(O)c1ccc2cc(O)ccc2c1` [Compound 24, 6-Hydroxy-2-naphthalene-sulfonic acid] the inhibition at 1 µM [1] was 8.2%, the inhibition at 0.013 µM [5] was 18% and the “Serum IL-6, LPS plus compound” value ([2]; compound 15 mg/kg i.p. at −24 h, −1 h before LPS 15 mg/kg i.p.) was 144 ± 18 ng/mL.
In the case of `COc1cc2ccccc2cc1OC` [Compound 2, 6,7-dimethoxynaphthalene], the inhibition at 0.1 µM ([1]; compound 0.1 uM) is reported as 11.6%, the “arthritis severity (articular index, synovial fluid cell number; FIGS. 5 and 6)” value [7] is reported as “significant inhibition of arthritis severity” and the EC50 ([3]; mBSA 10 μg/ml) is reported as 18.1 µM. The EC50 ([3]; mBSA 50 μg/ml) was 52 µM, the inhibition at 25 µM ([8]; 25 uM) was 5.8% and the inhibition at 50 µM ([8]; 50 uM) was 8.5%. It also gave an inhibition at 100 µM ([8]; 100 uM) of 13.6%.

Reference: patent US20060106102A1, “Napththalene derivatives which inhibit the cytokine or biological activity of microphage migration inhibitory factor (mif)” (priority 2002, published 2006)
